Read-outs that look alike come from different tables or passages of the source. Marks after values point to notes of the source that are not given here. Where a SMILES comes first, the peptide text is derived from it. [ ]: non-standard residue; d: D form. Sar = CNCC(=O)O
Columns and labels:
[1] = Plasma pharmacokinetics of stereoisomeric prodrugs following oral administration in rats
HCMV = assay: In vitro antiviral screening, CPE inhibition in HFF cells; type: cell-based, human cytomegalovirus; settings: Human betaherpesvirus 5, HFF; HCMV, CPE Inhibition
HSV-1 strain McKrae = assay: HSV-1 epithelial keratitis rabbit model, topical treatment, SLE scores; type: in vivo
Description: The rabbit eye is an excellent model to study acute HSV-1 epithelial keratitis. Also, spontaneous and induced ocular HSV-1 shedding and corneal epithelial disease in rabbits has been used as a model of human ocular HSV-1 reactivation and recurrence. HSV-1 strain McKrae was used in studies for epithelial keratitis. HSV-1 strain RE was used for studies of HSV stromal keratitis.
i) Epithelial Keratitis: A group of ten rabbits was used to study each compound. Both eyes of all rabbits were used. An aqueous vehicle (like a placebo) and one positive control were obtained using 1% TFT (Viroptic®). Each compound at 1% concentration (TFT=33 mM, Gly-Gly-ACV=26.6 mM, Val-Val-ACV=18.6 mM) were applied (50 μl) topically 5 times per day every two hours starting at 8:00 a.m. and ending at 4:00 p.m. The treatment began on the 3rd post-inoculation day and continued for 5 consecutive days. Slit-lamp examinations were performed once every day for 8 days and thereafter once every other day until lesions resolved.

Caco-2 cell suspension = settings: for 10^2 × kobs: Caco-2 cell suspension at pH 7.4, * = no intact drug detected during the experiment
[2] = system: rabbit corneal cell line (SIRC); settings: SIRC cells
[3] = for first order hydrolytic rate constant k: 37° C.
hPEPT1 = biological target: T1, hPEPT1 (Homo sapiens, UniProt P46059); assay: [3H] Glycylsarcosine uptake and its inhibition in Caco-2 cells (affinity towards peptide transporter); type: cell-based; settings: for effect on the uptake of [3H] Gly-Sar: Caco-2, pH 6.0, 10 minutes; for Ki: read-out: Ki; for Vmax of Gly-Sar uptake in presence of the drug: Gly-Sar with drug (10 mM)
T1 construct: endogenous in cells; host or cells: Caco-2 (human colon carcinoma, ATCC)
T1 sequence (P46059 1-708): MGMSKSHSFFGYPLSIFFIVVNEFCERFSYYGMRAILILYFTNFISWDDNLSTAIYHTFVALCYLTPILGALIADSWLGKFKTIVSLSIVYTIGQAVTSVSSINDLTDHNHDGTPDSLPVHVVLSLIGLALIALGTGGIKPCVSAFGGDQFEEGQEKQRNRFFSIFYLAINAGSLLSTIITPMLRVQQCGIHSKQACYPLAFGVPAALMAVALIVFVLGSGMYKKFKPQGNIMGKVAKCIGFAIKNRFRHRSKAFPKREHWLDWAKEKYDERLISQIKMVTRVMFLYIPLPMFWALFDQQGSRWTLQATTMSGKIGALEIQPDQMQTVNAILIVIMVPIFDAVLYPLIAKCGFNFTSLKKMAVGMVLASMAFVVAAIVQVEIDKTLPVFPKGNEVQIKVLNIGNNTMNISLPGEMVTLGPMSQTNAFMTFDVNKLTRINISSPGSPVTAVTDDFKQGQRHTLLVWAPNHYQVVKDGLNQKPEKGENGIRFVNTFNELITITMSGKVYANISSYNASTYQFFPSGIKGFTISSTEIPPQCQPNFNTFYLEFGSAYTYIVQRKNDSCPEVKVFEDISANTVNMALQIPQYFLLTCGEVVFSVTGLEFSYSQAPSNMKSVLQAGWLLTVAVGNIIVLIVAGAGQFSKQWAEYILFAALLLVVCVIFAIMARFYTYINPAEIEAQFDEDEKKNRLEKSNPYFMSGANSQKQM
Description: Materials: [^3H] Glycylsarcosine (Gly-Sar; 4 Ci/mmol) was purchased from Moravek Biochemicals (Brea, Calif.) and [^14C] Mannitol (50 mCi/mmol) was supplied by Amersham (Piscataway, N.J.). Human colon carcinoma derived Caco-2 cells were obtained from American Type Culture Collection (ATCC, Rockville, Md.). The growth medium, Dulbecco's modified Eagle Medium was obtained from Life Technologies (Grand Island, N.Y.). […] Fetal bovine serum (FBS) was purchased from JRH Biosciences (Lenexa, Kans.). Culture flasks (75 cm^2 growth area), polyester Transwells® (pore size 0.4 Cm with diameter 6.5 mm) and polyester membranes (pore size 0.4 Cm) were procured from Costar (Bedford, Mass.). The buffer components and solvents were obtained from Fisher Scientific (St. Louis, Mo.). All the di-peptide esters of acyclovir were custom synthesized in our laboratory. […] Cell Culture: All cultures were maintained in humidified incubator at 37° C. with a 5% carbon dioxide in air atmosphere. Caco-2 cells were obtained at passage 25 from American Type Culture Collection (ATCC) and grown in plastic tissue culture flasks. […] When 80% confluent, these cells were removed by treating them with Trypsin/EDTA and plated at a density of 100,000 cells/cm^2 on collagen coated plastic dishes containing clear polyester membranes (0.636 cm^2, […]) or 12-well tissue culture treated plastic plates. Cells were then grown in medium containing 10% FBS (heat-inactivated). […] [^14C] […] Metabolism studies in Cell Suspensions: Confluent Caco-2 cells, grown in tissue culture flasks were isolated with the aid of mechanical scraper and washed thrice with DPBS. […] One-hundred micro-liters of samples were withdrawn at predetermined time intervals and the sample was purified by precipitating the cellular proteins into the organic solvent mixture and stored at −80° C. until further analysis. The protein content of the cell suspension was determined by the method of Bradford using bovine serum albumin as the standard (BioRad protein estimation kit, Hercules, Calif.). […] Transport studies: Transport experiments were done using Side-Bi-Side™ diffusion cells (type VSC-1, Crown Glass Company Inc.) and Transwell® inserts. Prior to the experiment with Gly-Sar, Caco-2 cell monolayers grown on the clear polyester membranes and Transwell® inserts were washed with DPBS (pH 6.0) and incubated at 37° C. Freshly prepared drug solutions in DPBS (pH 6.0) was placed in the donor chamber and the receiver chamber was filled with DPBS. The volumes of donor and receptor chambers were 3 ml each for Side-Bi-Side™ diffusion cells and 0.5 ml and 1.5 ml respectively for Transwell® inserts. […] The samples were stored at −80° C. until analyzed HPLC. All experiments were performed at 37° C. […] The concentration dependent uptake of glycylsarcosine was studied using [^3H] […] For Dixon plots and Dose Response studies [^3H] […] Following incubation, the cell monolayers were washed three times with ice-cold HEPES buffer to terminate the uptake experiment. After the washings cells were lysed overnight using 1 ml 0.1% (w/v) Triton X-100 in 0.3 N NaOH at room temperature. Aliquots (500 μl) from each well were then transferred to scintillation vials containing 5 ml scintillation cocktail (Fisher Scientific, Fairlawn, N.J.). […] The amount of protein in the cell lysate was measured by the BioRad protein estimation kit using bovine serum albumin as standard (BioRad Protein estimation Kit, Hercules, Calif.). Analytical Procedures: All samples were assayed using HPLC. […] The column used was a C18 Luna column 4.6×250 mm (Phenomenex). The mobile phase consisted of a mixture of buffer and an organic modifier. The percentage of organic phase was varied in order to elute compounds of interest.

in vitro = settings: human, Caco-2, pH 7.4
[4] = system: oligopeptide transporter on the rabbit cornea
[5] = substrate: CN(CC(=O)O)C(=O)CN; assay: [3H] Glycylsarcosine uptake and its inhibition in Caco-2 cells (affinity towards peptide transporter); type: cell-based, human; settings: other: Gly-Sar alone, 37.0 °C
[6] = plasma analyte following oral administration of LDACV in rats

CC(C)[C@@H](N)C(=O)OCCOCn1cnc2c(=O)[nH]c(N)nc21 [DACV]
AUC [1, 6]: 261.89 ± 23.64 µM·min | Cmax [1, 6]: 8.68 ± 1.24 µM | Tmax [1, 6]: 15 min

CC(C)C(N)C(=O)NC(C(=O)OCCOCn1cnc2c(=O)[nH]c(N)nc21)C(C)C [DLACV, D-valine-L-valine-acyclovir]
concentrations in the systemic circulation ([1]; oral administration in rats): Very little concentrations were observed

Nc1nc(O)c2ncn(COC(CO)CO)c2n1 [GCV, 2-amino-1,9-[[2-hydroxy-1-(hydroxymethyl)ethoxy]methyl]-6H-purin-6-one]
EC50 (HCMV): 0.00094 mM

NCC(=O)NCC(=O)OCCOCn1cnc2c(=O)[nH]c(N)nc21 [Gly-Gly-ACV]
efficacy relative to TFT (SLE scores) (HSV-1 strain McKrae): more effective than TFT | Concentration required to achieve an SLE Score of 0.3 (HSV-1 strain McKrae; 14 days post-inoculation, 1% topical 5 times per day): 26.6 mM | intact drug after incubation with the cell suspension (Caco-2 cell suspension; Caco-2 cell suspension): no intact drug detected within one minute | percent survival ([2]; 0.25 mM): 104.6% | percent survival ([2]; 0.5 mM): 94.7% | percent survival ([2]; 1 mM): 90.1% | percent survival ([2]; 2 mM): 86.2% | percent survival ([2]; 5 mM): 63.8% | percent survival ([2]; 10 mM): 49.32% | stability as an ophthalmic solution ([3]; pH 5.6, concluded from rate constants): stable for two years | first order hydrolytic rate constant k ([3]; pH 7.4): 6.75 k × 10^3 min^−1 | first order hydrolytic rate constant k ([3]; pH 9.0): 14.85 k × 10^3 min^−1

CN(CC(=O)O)C(=O)CN [Gly-Sar, glycylsarcosine, reference compound] (H-Gly-[Sar]-OH)
effect on the uptake of [3H] Gly-Sar (hPEPT1): significantly inhibited | Kd (rate constant of nonsaturable uptake component) (hPEPT1; Caco-2 uptake of glycylsarcosine): 12.2 ± 0.57 µL/min/mg | Ki (hPEPT1; Dixon): 2.35 ± 0.67 mM | Ki (hPEPT1; Dose Response (Cheng and Prusoff from IC50)): 2.49 mM | Vmax of glycylsarcosine uptake (hPEPT1; Gly-Sar alone, Michaelis-Menten): 0.078 ± 0.005 µmol/min/mg | IC50 (hPEPT1; dose response curves, read-out: IC50 of inhibition of [3H] Gly-Sar uptake): 2.78 ± 0.34 mM

NCC(=O)NC(Cc1ccc(O)cc1)C(=O)OCCOCn1cnc2c(=O)[nH]c(N)nc21 (stereo not drawn) [Gly-Tyr-ACV]
10^2 × kobs (Caco-2 cell suspension): 3.21 ± 0.46 min^−1mg^−1 protein | Vmax of Gly-Sar uptake in presence of the drug (hPEPT1; Lineweaver-Burk): 0.094 ± 0.11 µmol/min/mg | Ki (hPEPT1; Lineweaver-Burk): 3.94 ± 0.61 mM | Ki (hPEPT1; Michaelis-Menten): 3.56 ± 1.98 mM | half-life at 0.2 mM (in vitro): 21.5 ± 3.2 min

Nc1ccc(C(=O)NCC(=O)O)cc1 [PAH, para-aminohippuric acid, reference compound]
transport of Val-ACV (percent of control) ([4]; 1 mM Val-ACV in presence of 10 mM compound): 99.6±2.6% of control

CC[N+](CC)(CC)CC [TEA, tetraethlyammonium, reference compound]
transport of Val-ACV (percent of control) [4]: 101.3±1.1% of control

Nc1nc2c(ncn2COCCOC(=O)CNC(=O)C(N)Cc2ccc(O)cc2)c(=O)[nH]1 (stereo not drawn) [Tyr-Gly-ACV]
10^2 × kobs (Caco-2 cell suspension): 5.22 ± 0.58 min^−1mg^−1 protein | Vmax of Gly-Sar uptake in presence of the drug (hPEPT1; Lineweaver-Burk): 0.087 ± 0.09 µmol/min/mg | Ki (hPEPT1; Lineweaver-Burk): 8.23 ± 0.43 mM | Ki (hPEPT1; Michaelis-Menten): 7.99 ± 0.54 mM | half-life at 0.2 mM (in vitro): 13.3 ± 1.5 min

NCC(=O)OCCOCn1cnc2c(=O)[nH]c(N)nc21 [glycine-ACV]
effect on the uptake of [3H] Gly-Sar (hPEPT1): did not inhibit

Nc1nc2c(ncn2COCCOC(=O)C(N)Cc2ccc(O)cc2)c(=O)[nH]1 (centres unmarked) [tyrosine-ACV]
effect on the uptake of [3H] Gly-Sar (hPEPT1): did not inhibit

CC(C)[C@H](N)C(=O)N[C@H](C(=O)O)C(C)C [val-val, reference compound] (H-Val-Val-OH)
effect on the uptake of [3H] Gly-Sar (hPEPT1): significantly inhibited

B1: hPEPT1 (Homo sapiens) (protein)
chain: T1 sequence (P46059 1-708)
notes: endogenous in cells; host or cells: Caco-2 (human colon carcinoma, ATCC)
Km ([5]; Eadie-Hofstee): 1.42 ± 0.19 mM | Vmax ([5]; Eadie-Hofstee): 0.071 µmol/min/mg | Km ([5]; Lineweaver-Burk (control)): 2.04 ± 0.61^a mM | Vmax ([5]; Lineweaver-Burk (control)): 0.086 µmol/min/mg | Km ([5]; Michaelis-Menten): 1.63 ± 0.25 mM | Vmax ([5]; Michaelis-Menten): 0.078 µmol/min/mg

Source: patent publication US20090149482A1, “STEREOCHEMICALLY DEFINED DIPEPTIDE ESTERS OF ANTIVIRAL AGENTS FOR ENHANCED OCULAR TREATMENT” (priority 2001, published 2009)
